Measured values published in ChEMBL document CHEMBL2203238, “Hit to Lead optimization of a novel class of squarate-containing polo-like kinases inhibitors” (Bioorg Med Chem Lett, 2012).

Tests used:
[1] = target: Non-receptor tyrosine-protein kinase TYK2 (Homo sapiens, UniProt P29597); assay: Inhibition of recombinant TYK2 after 1 hr by scintillation counter analysis in presence of gamma-[33P]ATP
[2] = target: Casein kinase I isoform delta (Homo sapiens, UniProt P48730); assay: Inhibition of recombinant CK1delta after 1 hr by scintillation counter analysis in presence of gamma-[33P]ATP
Casein kinase I isoform delta, sequence (P48730 whole entry, canonical isoform): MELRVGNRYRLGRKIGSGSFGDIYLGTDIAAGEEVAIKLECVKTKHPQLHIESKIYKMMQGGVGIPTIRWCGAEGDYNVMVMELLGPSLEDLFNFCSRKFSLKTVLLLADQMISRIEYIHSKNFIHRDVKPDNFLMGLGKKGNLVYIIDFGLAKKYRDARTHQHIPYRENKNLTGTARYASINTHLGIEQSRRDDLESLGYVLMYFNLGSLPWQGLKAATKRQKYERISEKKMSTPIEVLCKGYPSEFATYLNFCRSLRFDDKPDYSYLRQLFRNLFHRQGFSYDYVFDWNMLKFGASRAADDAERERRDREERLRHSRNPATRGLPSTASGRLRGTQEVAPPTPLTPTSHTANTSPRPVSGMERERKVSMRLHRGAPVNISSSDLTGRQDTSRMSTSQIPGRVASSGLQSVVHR

[3] = Cmax in mouse at 50 mg/kg, po measured at 8 hrs; format: ADME, organism-based; set-up: dose 50 mg/kg, route oral; details: in vivo
[4] = target: Tyrosine-protein kinase Lyn (Homo sapiens, UniProt P07948); assay: Inhibition of recombinant LYN after 1 hr by scintillation counter analysis in presence of gamma-[33P]ATP
Ephrin type-A receptor 2 = Ephrin type-A receptor 2 (Homo sapiens, UniProt P29317); assay: Inhibition of recombinant EPHA2 after 1 hr by scintillation counter analysis in presence of gamma-[33P]ATP
Ephrin type-A receptor 2, sequence (P29317 whole entry): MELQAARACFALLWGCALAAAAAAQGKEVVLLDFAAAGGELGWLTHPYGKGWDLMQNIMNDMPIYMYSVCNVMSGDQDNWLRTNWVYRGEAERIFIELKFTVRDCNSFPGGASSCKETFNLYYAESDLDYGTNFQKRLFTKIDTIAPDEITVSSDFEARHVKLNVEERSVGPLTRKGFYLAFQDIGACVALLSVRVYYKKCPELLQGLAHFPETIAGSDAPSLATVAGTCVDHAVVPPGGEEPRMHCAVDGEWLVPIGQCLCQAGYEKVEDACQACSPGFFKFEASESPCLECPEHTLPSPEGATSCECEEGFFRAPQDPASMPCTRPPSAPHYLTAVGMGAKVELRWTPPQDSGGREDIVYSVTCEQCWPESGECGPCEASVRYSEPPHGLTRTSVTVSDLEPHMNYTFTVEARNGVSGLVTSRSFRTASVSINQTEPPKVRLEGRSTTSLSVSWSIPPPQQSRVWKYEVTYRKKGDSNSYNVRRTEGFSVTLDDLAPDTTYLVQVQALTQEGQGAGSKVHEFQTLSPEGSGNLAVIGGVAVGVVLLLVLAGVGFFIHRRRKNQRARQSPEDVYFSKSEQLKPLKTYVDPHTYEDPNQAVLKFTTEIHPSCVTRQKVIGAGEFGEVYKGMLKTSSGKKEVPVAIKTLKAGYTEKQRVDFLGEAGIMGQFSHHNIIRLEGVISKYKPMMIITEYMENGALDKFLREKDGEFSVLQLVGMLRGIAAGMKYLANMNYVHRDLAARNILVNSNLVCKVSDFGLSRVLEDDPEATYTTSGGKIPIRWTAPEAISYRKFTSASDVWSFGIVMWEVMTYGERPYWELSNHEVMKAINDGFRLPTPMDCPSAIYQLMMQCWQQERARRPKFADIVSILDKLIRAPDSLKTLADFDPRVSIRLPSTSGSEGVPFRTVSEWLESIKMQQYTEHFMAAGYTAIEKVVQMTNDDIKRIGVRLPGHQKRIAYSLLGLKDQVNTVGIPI

[5] = target: RAC-beta serine/threonine-protein kinase (Homo sapiens, UniProt P31751); assay: Inhibition of recombinant AKT2 after 1 hr by scintillation counter analysis in presence of gamma-[33P]ATP
[6] = target: Cyclin-dependent kinase 5 (Homo sapiens, UniProt Q00535); assay: Inhibition of recombinant CDK5 after 1 hr by scintillation counter analysis in presence of gamma-[33P]ATP
Cyclin-dependent kinase 5, sequence (Q00535 whole entry): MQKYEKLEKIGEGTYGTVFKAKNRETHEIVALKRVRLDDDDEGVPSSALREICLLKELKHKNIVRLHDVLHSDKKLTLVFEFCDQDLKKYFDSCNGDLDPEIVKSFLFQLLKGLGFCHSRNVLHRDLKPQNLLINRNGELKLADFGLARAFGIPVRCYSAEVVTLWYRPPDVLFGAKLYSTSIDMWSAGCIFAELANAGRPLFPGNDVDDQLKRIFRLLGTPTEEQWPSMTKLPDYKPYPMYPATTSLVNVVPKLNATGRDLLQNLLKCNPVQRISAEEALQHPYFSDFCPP

[7] = target: Calcium/calmodulin-dependent protein kinase type IV (Homo sapiens, UniProt Q16566); assay: Inhibition of recombinant CAMK4 after 1 hr by scintillation counter analysis in presence of gamma-[33P]ATP
Calcium/calmodulin-dependent protein kinase type IV, sequence (Q16566 whole entry): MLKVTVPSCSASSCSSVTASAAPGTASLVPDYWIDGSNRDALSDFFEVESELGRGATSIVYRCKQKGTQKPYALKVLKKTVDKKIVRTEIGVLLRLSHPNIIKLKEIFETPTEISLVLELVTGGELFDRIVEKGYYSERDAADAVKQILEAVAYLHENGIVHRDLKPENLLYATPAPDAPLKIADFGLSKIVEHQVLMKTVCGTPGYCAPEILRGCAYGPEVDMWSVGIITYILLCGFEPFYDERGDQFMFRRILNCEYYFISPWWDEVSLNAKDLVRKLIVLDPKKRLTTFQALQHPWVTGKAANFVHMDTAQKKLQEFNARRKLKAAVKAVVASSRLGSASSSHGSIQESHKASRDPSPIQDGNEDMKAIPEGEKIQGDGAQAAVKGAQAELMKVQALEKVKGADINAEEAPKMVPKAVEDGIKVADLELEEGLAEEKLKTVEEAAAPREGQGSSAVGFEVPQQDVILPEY

[8] = target: Dual specificity tyrosine-phosphorylation-regulated kinase 1A (Homo sapiens, UniProt Q13627); assay: Inhibition of recombinant DYRK1A after 1 hr by scintillation counter analysis in presence of gamma-[33P]ATP
[9] = target: Mitogen-activated protein kinase 1 (Homo sapiens, UniProt P28482); assay: Inhibition of recombinant ERK2 after 1 hr by scintillation counter analysis in presence of gamma-[33P]ATP
[10] = target: Serine/threonine-protein kinase PLK2 (Homo sapiens, UniProt Q9NYY3); assay: Inhibition of recombinant PLK2 after 1 hr by scintillation counter analysis in presence of gamma-[33P]ATP
[11] = target: Tyrosine-protein kinase Fyn (Homo sapiens, UniProt P06241); assay: Inhibition of recombinant FYN after 1 hr by scintillation counter analysis in presence of gamma-[33P]ATP
[12] = target: MAP kinase-activated protein kinase 3 (Homo sapiens, UniProt Q16644); assay: Inhibition of recombinant MK3 after 1 hr by scintillation counter analysis in presence of gamma-[33P]ATP
[13] = target: Insulin-like growth factor 1 receptor (Homo sapiens, UniProt P08069); assay: Inhibition of recombinant IGF1R after 1 hr by scintillation counter analysis in presence of gamma-[33P]ATP
[14] = target: Interleukin-1 receptor-associated kinase 4 (Homo sapiens, UniProt Q9NWZ3); assay: Inhibition of recombinant IRAK4 after 1 hr by scintillation counter analysis in presence of gamma-[33P]ATP
[15] = target: 3-phosphoinositide-dependent protein kinase 1 (Homo sapiens, UniProt O15530); assay: Inhibition of recombinant PDK1 after 1 hr by scintillation counter analysis in presence of gamma-[33P]ATP
[16] = target: Rho-associated protein kinase 2 (Homo sapiens, UniProt O75116); assay: Inhibition of recombinant ROCK2 after 1 hr by scintillation counter analysis in presence of gamma-[33P]ATP
[17] = target: Hepatocyte growth factor receptor (Homo sapiens, UniProt P08581); assay: Inhibition of recombinant c-MET after 1 hr by scintillation counter analysis in presence of gamma-[33P]ATP
[18] = target: Serine/threonine-protein kinase Nek2 (Homo sapiens, UniProt P51955); assay: Inhibition of recombinant NEK2 after 1 hr by scintillation counter analysis in presence of gamma-[33P]ATP
[19] = target: Serine/threonine-protein kinase PAK 1 (Homo sapiens, UniProt Q13153); assay: Inhibition of recombinant PAK1 after 1 hr by scintillation counter analysis in presence of gamma-[33P]ATP
[20] = target: MAP/microtubule affinity-regulating kinase 3 (Homo sapiens, UniProt P27448); assay: Inhibition of recombinant CTAK1 after 1 hr by scintillation counter analysis in presence of gamma-[33P]ATP
[21] = target: Tyrosine-protein kinase JAK3 (Homo sapiens, UniProt P52333); assay: Inhibition of recombinant JAK3 after 1 hr by scintillation counter analysis in presence of gamma-[33P]ATP
[22] = target: 5'-AMP-activated protein kinase subunit beta-1 (Homo sapiens, UniProt Q9Y478); assay: Inhibition of recombinant AMPK after 1 hr by scintillation counter analysis in presence of gamma-[33P]ATP
5'-AMP-activated protein kinase subunit beta-1, sequence (Q9Y478 whole entry): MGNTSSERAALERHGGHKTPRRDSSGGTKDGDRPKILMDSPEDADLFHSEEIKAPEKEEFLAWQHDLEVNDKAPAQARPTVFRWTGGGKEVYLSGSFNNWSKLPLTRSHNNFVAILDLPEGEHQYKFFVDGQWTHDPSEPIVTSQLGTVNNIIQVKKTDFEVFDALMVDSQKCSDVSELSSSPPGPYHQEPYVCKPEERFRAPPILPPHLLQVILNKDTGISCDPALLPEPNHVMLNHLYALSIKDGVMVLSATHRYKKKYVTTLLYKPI

[23] = target: Serine/threonine-protein kinase PLK1 (Homo sapiens, UniProt P53350); assay: Inhibition of recombinant GST-tagged PLK1 using biotin-ahx-AKMETTFYDDALNASFLPSEKKK-amide as substrate after 30 mins by scintillation counting analysis in presence of gamma-[33P]ATP
[24] = target: BDNF/NT-3 growth factors receptor (Homo sapiens, UniProt Q16620); assay: Inhibition of recombinant TRKB after 1 hr by scintillation counter analysis in presence of gamma-[33P]ATP
[25] = target: Serine/threonine-protein kinase Chk2 (Homo sapiens, UniProt O96017); assay: Inhibition of recombinant CHK2 after 1 hr by scintillation counter analysis in presence of gamma-[33P]ATP
[26] = target: Glycogen synthase kinase-3 alpha (Homo sapiens, UniProt P49840); assay: Inhibition of recombinant GSK3A after 1 hr by scintillation counter analysis in presence of gamma-[33P]ATP
[27] = target: Serine/threonine-protein kinase PLK4 (Homo sapiens, UniProt O00444); assay: Inhibition of recombinant PLK4 after 1 hr by scintillation counter analysis in presence of gamma-[33P]ATP
LIM domain kinase 1 = LIM domain kinase 1 (Homo sapiens, UniProt P53667); assay: Inhibition of recombinant LIMK1 after 1 hr by scintillation counter analysis in presence of gamma-[33P]ATP
[28] = Oral bioavailability in mouse; format: ADME, organism-based; details: in vivo
[29] = target: RAC-alpha serine/threonine-protein kinase (Homo sapiens, UniProt P31749); assay: Inhibition of recombinant AKT1 after 1 hr by scintillation counter analysis in presence of gamma-[33P]ATP
[30] = target: Proto-oncogene tyrosine-protein kinase Src (Homo sapiens, UniProt P12931); assay: Inhibition of recombinant SRC after 1 hr by scintillation counter analysis in presence of gamma-[33P]ATP
[31] = target: Vascular endothelial growth factor receptor 1 (Homo sapiens, UniProt P17948); assay: Inhibition of recombinant FLT1 after 1 hr by scintillation counter analysis in presence of gamma-[33P]ATP
[32] = target: Receptor tyrosine-protein kinase erbB-2 (Homo sapiens, UniProt P04626); assay: Inhibition of recombinant ERBB2 after 1 hr by scintillation counter analysis in presence of gamma-[33P]ATP
Receptor tyrosine-protein kinase erbB-2, sequence (P04626 whole entry): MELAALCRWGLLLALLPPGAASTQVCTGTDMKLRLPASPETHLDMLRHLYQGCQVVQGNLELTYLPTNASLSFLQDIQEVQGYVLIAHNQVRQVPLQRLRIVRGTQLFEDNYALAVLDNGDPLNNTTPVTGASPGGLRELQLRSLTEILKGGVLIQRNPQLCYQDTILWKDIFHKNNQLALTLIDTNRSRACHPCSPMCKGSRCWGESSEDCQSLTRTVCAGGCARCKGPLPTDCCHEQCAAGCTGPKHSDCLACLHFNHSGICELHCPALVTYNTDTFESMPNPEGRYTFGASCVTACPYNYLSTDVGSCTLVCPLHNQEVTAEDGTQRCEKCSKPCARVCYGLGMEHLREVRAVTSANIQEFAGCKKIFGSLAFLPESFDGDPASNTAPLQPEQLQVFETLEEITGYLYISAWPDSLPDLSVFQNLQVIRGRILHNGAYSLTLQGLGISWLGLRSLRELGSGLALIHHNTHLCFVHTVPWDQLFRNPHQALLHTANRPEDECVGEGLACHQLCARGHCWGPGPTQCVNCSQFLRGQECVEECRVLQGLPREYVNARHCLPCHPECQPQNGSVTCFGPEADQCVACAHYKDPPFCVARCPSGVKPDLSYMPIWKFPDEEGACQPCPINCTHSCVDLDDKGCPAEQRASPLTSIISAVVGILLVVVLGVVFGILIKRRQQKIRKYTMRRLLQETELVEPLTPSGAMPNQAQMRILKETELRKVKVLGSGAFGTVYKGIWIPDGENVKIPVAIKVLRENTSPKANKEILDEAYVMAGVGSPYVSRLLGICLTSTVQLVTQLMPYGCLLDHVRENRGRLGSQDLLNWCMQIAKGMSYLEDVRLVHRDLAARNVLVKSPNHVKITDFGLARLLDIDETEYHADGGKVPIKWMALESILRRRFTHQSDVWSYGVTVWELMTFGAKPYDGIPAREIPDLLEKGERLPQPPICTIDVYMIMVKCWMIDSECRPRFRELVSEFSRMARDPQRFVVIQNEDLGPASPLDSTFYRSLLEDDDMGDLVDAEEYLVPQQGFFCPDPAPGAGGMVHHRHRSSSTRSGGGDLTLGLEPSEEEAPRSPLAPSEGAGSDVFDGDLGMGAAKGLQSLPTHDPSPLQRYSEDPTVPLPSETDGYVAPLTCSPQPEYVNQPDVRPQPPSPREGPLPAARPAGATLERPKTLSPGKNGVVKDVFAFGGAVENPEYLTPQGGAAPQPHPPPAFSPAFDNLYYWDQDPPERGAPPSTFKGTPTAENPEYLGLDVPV

[33] = Half life in mouse, iv; format: ADME, organism-based; details: in vivo

Non-receptor tyrosine-protein kinase TYK2, sequence (P29597 whole entry, canonical isoform): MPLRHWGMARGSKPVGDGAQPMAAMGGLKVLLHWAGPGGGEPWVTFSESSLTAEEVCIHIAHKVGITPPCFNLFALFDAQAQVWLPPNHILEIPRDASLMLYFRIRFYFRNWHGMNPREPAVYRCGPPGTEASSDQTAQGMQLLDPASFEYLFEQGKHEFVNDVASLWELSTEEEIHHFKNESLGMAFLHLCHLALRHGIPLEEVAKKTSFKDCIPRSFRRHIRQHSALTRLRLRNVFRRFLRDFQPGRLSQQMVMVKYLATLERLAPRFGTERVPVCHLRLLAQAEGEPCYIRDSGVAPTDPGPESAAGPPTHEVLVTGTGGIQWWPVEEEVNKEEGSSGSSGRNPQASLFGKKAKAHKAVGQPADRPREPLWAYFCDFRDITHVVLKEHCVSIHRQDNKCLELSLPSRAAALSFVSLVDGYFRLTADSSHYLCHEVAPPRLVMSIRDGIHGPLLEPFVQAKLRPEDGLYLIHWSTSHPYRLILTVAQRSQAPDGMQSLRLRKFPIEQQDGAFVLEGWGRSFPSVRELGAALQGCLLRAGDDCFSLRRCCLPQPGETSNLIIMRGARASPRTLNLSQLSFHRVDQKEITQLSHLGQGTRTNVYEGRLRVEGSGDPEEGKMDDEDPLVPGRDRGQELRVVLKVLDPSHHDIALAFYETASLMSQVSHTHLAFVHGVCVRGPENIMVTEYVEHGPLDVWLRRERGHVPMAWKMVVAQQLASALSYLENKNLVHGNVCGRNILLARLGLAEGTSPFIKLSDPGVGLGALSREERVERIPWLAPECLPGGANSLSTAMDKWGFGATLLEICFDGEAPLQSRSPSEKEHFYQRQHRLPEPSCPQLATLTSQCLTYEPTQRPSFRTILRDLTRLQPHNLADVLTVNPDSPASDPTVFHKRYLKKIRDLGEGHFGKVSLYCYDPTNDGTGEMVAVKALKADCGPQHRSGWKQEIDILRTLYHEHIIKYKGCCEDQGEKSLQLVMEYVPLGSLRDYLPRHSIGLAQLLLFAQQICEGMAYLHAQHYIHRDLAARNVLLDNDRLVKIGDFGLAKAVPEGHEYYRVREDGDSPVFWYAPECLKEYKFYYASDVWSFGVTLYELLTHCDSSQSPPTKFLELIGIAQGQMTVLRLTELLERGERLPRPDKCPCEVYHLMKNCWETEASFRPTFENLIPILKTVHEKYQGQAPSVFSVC

- Ki [1]: > 1900 nM
- Ki [2]: > 7800 nM
- Cmax [3]: 3.3 µM
- Ki [4]: > 1600 nM
- Ki (Ephrin type-A receptor 2): > 2800 nM
- Ki [5]: > 8000 nM
- Ki [6]: 416 nM
- Ki [7]: > 8500 nM
- Ki [8]: > 6800 nM
- Ki [9]: 7200 nM
- Ki [10]: 2 nM
- Ki [11]: 328 nM
- Ki [12]: > 9200 nM
- Ki [13]: > 1800 nM
- Ki [14]: > 9900 nM
- Ki [15]: 71 nM
- Ki [16]: 430 nM
- Ki [17]: 1600 nM
- Ki [18]: > 9200 nM
- Ki [19]: > 9700 nM
- Ki [20]: 4830 nM
- Ki [21]: > 1700 nM
- Ki [22]: 333 nM
- Ki [23]: 5 nM
- Ki [24]: > 4500 nM
- Ki [25]: 88 nM
- Ki [26]: 21 nM
- Ki [27]: 7 nM
- Ki (LIM domain kinase 1): 194 nM
- bioavailability [28]: 100%
- Ki [29]: > 8000 nM
- Ki [30]: > 1900 nM
- Ki [31]: 14 nM
- Ki [32]: > 1400 nM
- half-life [33]: 20.4 min
Structure (SMILES): CC(C)(C)Nc1c(Nc2ccnc(Nc3ccc(-c4ccncc4)cc3)n2)c(=O)c1=O
